This note sets out measurements from patent publication US12458621B1, “Application of genipin beta-methyl derivative gen-17 in preparation of drug for prevention and treatment of acute severe pneumonia” (KUNMING MEDICAL UNIVERSITY, priority 2024, dated 2025).

SMILES strings stand for the structures.

Assay type in all cases: in vivo, Kunming mice
Test [1] has as its system LPS-induced ALI mice. As to the kind of experiment: Total cell count in BALF. The procedure: (§1) A total of 144 SPF-grade healthy Kunming mice, aged 5-7 weeks and weighing 18-22 g, are weighed and randomly allocated into six experimental groups: control group (NS), model group (LPS), dexamethasone group (DEX, […] per kilogram abbreviated as mg/kg), genipin beta-methyl derivative low-dose group (12.5 mg/kg), genipin beta-methyl derivative medium-dose group (25 mg/kg), and genipin beta-methyl derivative high-dose group (50 mg/kg), 24 animals per group, in which 12 animals are used to take lung tissue for the detection of other indicators, and another 12 animals are used to collect BALF.
(§2) All mice are gavaged with a same volume of 0.9% normal saline once a day in the NS group and the LPS group, DEX solution (0.39 mg/kg) is gavaged once a day in the DEX group, low-dose Gen-17 solution (12.5 mg/kg) is gavaged once a day in the medium-dose Gen-17 group, medium-dose Gen-17 solution (25 mg/kg) is gavaged once a day in the high-dose Gen-17 group, and high-dose Gen-17 solution (50 mg/kg) is gavaged once a day in the high-dose Gen-17 group. The dosage is converted according to the weight of the mice, and the gavage volume is 20 milliliters per kilogram (mL/kg), and the gavage is continued for 3 days. One hour after the gavage on the third day, the ALI model is established by tracheal instillation of LPS solution. The specific experimental procedures are as follows. • (1) Before the operation, the mice are anesthetized by intraperitoneal injection of 1% sodium pentobarbital (30 mg/kg) according to their body weight. • (2) Limbs of anesthetized mice are fixed with rubber bands, teeth are wired with thin threads, and neck skin is disinfected with 75% alcohol. • (3) A subcutaneous tissue is separated along a longitudinal incision in a middle of the mouse neck until a cartilage ring appeared in an exposed trachea. • (4) A microinjector is inserted into the trachea in parallel towards a proximal end for about 1 centimeter (cm). Sterile NS is slowly dripped into the trachea of the control group, and LPS is dripped into the trachea of the other groups. • (5) After pulling out the microinjector, the mice are upright immediately, rotated and shaken evenly for 2 minutes (min), then the neck wound is sutured, and the state of the mice is observed. After the mice are awake, they are raised as usual. 2.3 Treatment of Experimental Animals and Collection of Lung Tissue Specimens
BALF is collected 24 hours after the establishment of the animal model. First, the remaining 12 mice in each group are weighed, and then BALF is extracted. The extracted BALF is used for total cell count, total protein content determination and enzyme-linked immunosorbent assay (ELISA) determination of IL-1B, IL-6 and TNF-α in BALF. The specific experimental procedures are as follows. • (1) After weighing, the mice are anesthetized by intraperitoneal injection of pentobarbital sodium according to their weight; • (2) When the tail root, hind limbs, eyelash reflex and other activities of mice disappear, and the mice breathe slowly and evenly, the limbs and teeth of mice are fixed, the neck skin of mice is disinfected with 75% alcohol, and the neck tissue is opened longitudinally, so that the tracheal cartilage ring is exposed. Tracheal puncture is performed with a 19G trocar catheter, the needle is inserted for about 1 cm, the needle core is pulled out, a 1 ml syringe is connected, and precooled normal saline (0.8 mL/time, repeat 2 times) is slowly injected. […]

The subject of the next test is IL-1β. As to the kind of experiment: IL-1β mRNA in lung tissue by qRT-PCR. To be noted: Gen-17 (12.5, 25, 50 mg/kg gavage) compared with LPS group (P<0.001). Here is the method: as §1, with “BALF. […]” for “BALF.”
(§3) Samples are collected 24 hours after the animal model is established. […] Lung tissues are collected and the whole lung wet weight is measured. […] After tidying, the lungs are photographed, excess tissues such as the trachea are cleared away, and the wet weight of the whole lung is measured to calculate the lung index. • (3) The upper lobe of the left lung is fixed in 4% neutral paraformaldehyde, fixed for 24 hours, paraffin-embedded and sectioned for HE staining. • (4) The remaining lung tissues are put into centrifugal tubes separately, quickly frozen in liquid nitrogen, and then stored at −80° C. after the experiment, which is used for the detection of MDA, SOD, western blotting (WB) and reverse transcription polymerase chain reaction (RT-PCR). […]

The subject of test [2] is LPS-induced ALI mice. As to the kind of experiment: Lung index (lung wet weight/body weight), LPS-induced ALI mice. The procedure:
as §1, §2
Samples are collected 24 hours after the animal model is established. The mice are weighed and 12 mice in each group are sacrificed. Lung tissues are collected and the whole lung wet weight is measured. The lung tissues are packaged for hematoxylin and eosin (HE) staining, MDA and SOD content determination, gene and protein detection. […] After tidying, the lungs are photographed, excess tissues such as the trachea are cleared away, and the wet weight of the whole lung is measured to calculate the lung index. • (3) The upper lobe of the left lung is fixed in 4% neutral paraformaldehyde, fixed for 24 hours, paraffin-embedded and sectioned for HE staining. • (4) The remaining lung tissues are put into centrifugal tubes separately, quickly frozen in liquid nitrogen, and then stored at −80° C. after the experiment, which is used for the detection of MDA, SOD, western blotting (WB) and reverse transcription polymerase chain reaction (RT-PCR). […]

The subject of test [3] is ERK phosphorylated protein. Kind of test: ERK phosphorylated protein in lung tissue by WB. The procedure:
as §1, with “BALF. […]” for “BALF.”
as §3

The next test has as its system HO-1. Kind of test: HO-1 protein in lung tissue by WB. The following applies: Gen-17 12.5, 25, 50 mg/kg gavage, ALI mice. Here is the method:
as §1, with “BALF. […]” for “BALF.”
as §3

Test [4] relates to LPS-induced ALI mice. Kind of test: Total protein concentration in BALF by BCA. The following applies: compared with LPS group (P<0.05). Here is the method: as §1
as §2, with “Sterile NS is slowly dripped into the trachea of the control group, and LPS is dripped into the trachea of the other groups. • (5) After pulling out the microinjector, the mice are upright immediately, rotated and shaken evenly for 2 minutes (min), then the neck wound is sutured, and the state of the mice is observed. After the mice are awake, they are raised as usual. 2.3 Treatment of Experimental Animals and Collection of Lung Tissue Specimens” left out

The test system of the next test is NF-κB p65. As to the kind of experiment: NF-κB p65 protein in lung tissue by WB. Here is the method:
as §1, with “BALF. […]” for “BALF.”
as §3

The subject of test [5] is JNK phosphorylated protein. Kind of test: JNK phosphorylated protein in lung tissue by WB. Here is the method: as §1, with “BALF. […]” for “BALF.”
as §3

Where [6] appears, read: after drug treatment, compared with LPS group.
The mark [7] stands for this setting: low-dose Gen-17 12.5 mg/kg gavage, compared with DEX group.

Turning to `COC(=O)C1=CO[C@@H](OC)[C@@H]2C(COC(=O)c3cccc(Br)c3)=CC[C@H]12` [Gen-17, genipin beta-methyl derivative], the “total cell counts in BALF” value in the test on LPS-induced ALI mice [1] (Gen-17 groups (12.5, 25, 50 mg/kg gavage) compared with LPS group (P<0.001)) is on record as “decreased significantly”; with LPS-induced ALI mice [1] (low-dose Gen-17 12.5 mg/kg gavage, compared with DEX group (P<0.01)), “significantly increased”; in the test with LPS-induced ALI mice [1] (low-dose Gen-17 12.5 mg/kg gavage, compared with NS group (P<0.001)), “significantly increased”; in the test on LPS-induced ALI mice [1] (middle-dose Gen-17 25 mg/kg gavage, compared with DEX group (P<0.01)), “significantly increased”; in the test on LPS-induced ALI mice [1] (middle-dose Gen-17 25 mg/kg gavage, compared with NS group (P<0.001)) it was “significantly increased”. Besides, in the test on IL-1β, the “mRNA expression of IL-1β in lung tissue” value was “significantly reduce the expression”. Further, in the test with LPS-induced ALI mice [2] (Gen-17 12.5, 25, 50 mg/kg gavage, ALI mice), the “degree of pulmonary edema (lung index), overall result” value is reported as “reduce the degree of pulmonary edema in ALI mice to varying degrees”. The lung index result was “statistically significant (P<0.05)” in the test on LPS-induced ALI mice [2] (Gen-17 groups (12.5, 25, 50 mg/kg gavage) compared with NS group); “statistically significant (P<0.01)” in the test with LPS-induced ALI mice [2] (high-dose Gen-17 50 mg/kg gavage, compared with LPS group); “increases most significantly” in the test on LPS-induced ALI mice [2] (low-dose Gen-17 12.5 mg/kg gavage, compared with DEX group (P<0.05)); “statistically significant (P<0.01)” in the test with LPS-induced ALI mice [2] (medium-dose Gen-17 25 mg/kg gavage, compared with LPS group). Also, the “expression of ERK phosphorylated protein in lung tissue” value was “down-regulate the expression of p38, ERK and JNK proteins” in test [3] (setting [6]); “statistically significant (P<0.05)” in test [3] (setting [7]). Moreover, the “expression of HO-1 protein in lung tissue, overall result” value with HO-1 was “upregulate the expression of Nrf2 and HO-1 protein”. In addition, the “total protein content in BALF” value in the test on LPS-induced ALI mice [4] (high-dose Gen-17 50 mg/kg gavage), with LPS-induced ALI mice [4] (low-dose Gen-17 12.5 mg/kg gavage) and in the test on LPS-induced ALI mice [4] (middle-dose Gen-17 25 mg/kg gavage) was “significantly reduced” in each case. The “expression of NF-κB p65 protein in lung tissue” value in the test with NF-κB p65 (Gen-17 groups (12.5, 25, 50 mg/kg gavage) compared with NS group (P<0.001, P<0.05)) is “significantly increased”; in the test on NF-κB p65 (after drug treatment, compared with LPS group (P<0.05)) it was “down-regulate the expression of NF-κB p65 protein”. The “expression of JNK phosphorylated protein in lung tissue” value was “down-regulate the expression of p38, ERK and JNK proteins” in test [5] (setting [6]); “statistically significant (P<0.05)” in test [5] (setting [7]).
